Source: ChEMBL document CHEMBL1649399, “Identification of a reduction product of aristolochic acid: implications for the metabolic activation of carcinogenic aristolochic acid” (J Nat Prod, 2010)
Activity calls are given as the source filed them. No cut-off for these calls is given here.

Test system: Nucleic Acid
Assay: Binding affinity to DNA assessed as DNA adduct formation
Type: nucleic-acid assay

| SMILES | Activity |
| --- | --- |
| O=C1Nc2cc3ccccc3c3c4c(cc1c23)OCO4 | Active |
| CC(=O)Nc1ccc2c(c1)Cc1ccccc1-2 | Active |
| COc1cccc2c1c(Nc1nc3c(ncn3[C@H]3C[C@H](O)[C@@H](CO)O3)c(=O)[nH]1)c1c3c(cc4c(c32)OCO4)C(=O)N1 | Active |
| COc1cccc2c1c(/N=c1\[nH]cnc3c1ncn3[C@H]1C[C@H](O)[C@@H](CO)O1)c1c3c(cc4c(c32)OCO4)C(=O)N1 | Active |
| O=C1Nc2c(/N=c3\[nH]cnc4c3ncn4[C@H]3C[C@H](O)[C@@H](CO)O3)c3ccccc3c3c4c(cc1c23)OCO4 | Active |
| O=C1Nc2c(Nc3nc4c(ncn4[C@H]4C[C@H](O)[C@@H](CO)O4)c(=O)[nH]3)c3ccccc3c3c4c(cc1c23)OCO4 | Active |
| COc1cccc2c1cc1c3c(cc4c(c32)OCO4)C(=O)N1 | Active |
